In US20230095836A1, “SUBSTITUTED 5,6-DIPHENYL-3(2H)-PYRIDAZINONES FOR USE AS FUNGICIDES” (FMC Corporation, priority 2020, published 2023):

Assays:
[1] = tested on: Blumeria graminis f. sp. tritici; experiment: Test C: test suspension sprayed on wheat seedlings, inoculated next day with Blumeria graminis f. sp. tritici (wheat powdery mildew); visual disease rating (100 = 100% disease control, 0 = no control; dash = not tested); format: in vivo
Method in brief: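 Visual ratings of disease control (0–100, relative to controls) were made 8 days after inoculation with B. graminis f. sp. tritici spore dust. Plants were held at 20 °C. Compound was applied as a spray to run-off one day before inoculation.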

[2] = tested on: Puccinia recondita f. sp. tritici; experiment: Test B: test solution sprayed on wheat seedlings, inoculated next day with Puccinia recondita f. sp. tritici (wheat leaf rust); disease rating (100 = 100% disease control, 0 = no control; dash = not tested); format: in vivo
From the text: The resulting test suspensions were then used in Tests A-F. The test solution was sprayed to the point of run-off on wheat seedlings. […] A rating of 100 indicates 100% disease control and a rating of 0 indicates no disease control (relative to the controls). A dash (—) indicates the compound was not tested.

[3] = tested on: Phakopsora pachyrhizi; experiment: Test D: test solution sprayed on soybean seedlings, inoculated next day with Phakopsora pachyrhizi (Asian soybean rust); visual disease rating (100 = 100% disease control, 0 = no control; dash = not tested); format: in vivo
Method in brief: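 Preventive spray test: soybean seedlings treated to run-off with ppm-level suspensions (acetone/water 50/50, 250 ppm PEG400), spore-inoculated one day later. Held 24 h at 22 °C in saturated air, then 8 days at 22 °C; disease control scored visually versus untreated plants, 0 = none, 100 = complete.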

[4] = tested on: Zymoseptoria tritici; experiment: Test A: test solution sprayed on wheat seedlings, inoculated next day with Zymoseptoria tritici (wheat leaf blotch); disease rating (100 = 100% disease control, 0 = no control; dash = not tested); format: in vivo
Method in brief: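 Preventive spray test: compound applied to run-off one day before spore inoculation of wheat seedlings. Incubation was 48 h saturated humidity at 24° C followed by 17 days at 20° C. Disease then scored 0–100 as % control versus untreated plants.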

[5] = tested on: Botrytis cinerea; experiment: Test E: test suspension sprayed on tomato seedlings, inoculated next day with Botrytis cinerea (tomato Botrytis); visual disease rating (100 = 100% disease control, 0 = no control; dash = not tested); format: in vivo
Method in brief: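 Spores were applied one day after spraying the seedlings to run-off. Incubation was 48 h saturated at 20° C, then 3 days in a 24° C growth chamber. Visual ratings, relative to untreated controls, run from 0 (no control) to 100 (complete control).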

[6] = tested on: Alternaria solani; experiment: Test F: test suspension sprayed on tomato seedlings, inoculated next day with Alternaria solani (tomato early blight); visual disease rating (100 = 100% disease control, 0 = no control; dash = not tested); format: in vivo
Method in brief: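 Visual ratings of % disease control versus controls were made after inoculated plants spent 48 h at 27° C. in saturated air plus 3 days at 20° C. The compound suspension had been sprayed to run-off one day before spore inoculation.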

melting point [°C] | SMILES | pest or weed control at 50 ppm [1] [%] | pest or weed control at 50 ppm [2] [%] | pest or weed control at 50 ppm [3] [%] | pest or weed control at 50 ppm [4] [%] | pest or weed control at 50 ppm [5] [%] | pest or weed control at 50 ppm [6] [%] | pest or weed control at 250 ppm [1] [%] | pest or weed control at 250 ppm [2] [%] | pest or weed control at 250 ppm [3] [%] | pest or weed control at 250 ppm [4] [%] | pest or weed control at 250 ppm [5] [%] | pest or weed control at 250 ppm [6] [%]
140 to 143 | COc1cc(OC)c(Cl)c(-c2nn(C)c(=O)c(C)c2-c2ccc(F)cc2Cl)c1 [Compound 66, 6-(2-chloro-3,5-dimethoxyphenyl)-5-(2-chloro-4-fluorophenyl)-2,4-dimethyl-3(2H)-pyridazinone] | 100 | 100 | 100 | 100 | 100 | 100 | – | – | – | – | – | –
165 to 168 | COc1ccc(Cl)c(-c2nn(C)c(=O)c(Cl)c2-c2ccc(F)cc2Cl)c1 [Compound 83, 4-chloro-5-(2-chloro-4-fluorophenyl)-6-(2-chloro-5-methoxyphenyl)-2-methyl-3(2H)-pyridazinone] | 99 | 100 | 100 | 100 | 92 | 100 | – | – | – | – | – | –
132 to 136 | COc1cc(OC)cc(-c2nn(C)c(=O)cc2-c2c(F)cccc2F)c1 [Compound 38, 5-(2,6-difluorophenyl)-6-(3,5-dimethoxyphenyl)-2-methyl-3(2H)-pyridazinone] | – | – | – | – | – | – | 81 | 99 | 0 | 98 | 98 | 0
85 to 90 | COc1cc(OC)c(Cl)c(-c2nn(C)c(=O)c(Cl)c2-c2ccc(F)cc2Cl)c1 [Compound 58, 4-chloro-6-(2-chloro-3,5-dimethoxyphenyl)-5-(2-chloro-4-fluorophenyl)-2-methyl-3(2H)-pyridazinone] | 100 | 100 | 100 | 100 | 99 | 100 | – | – | – | – | – | –
139 to 142 | COc1cc(OC)cc(C2=NN(C)C(=O)CC2c2c(F)cccc2F)c1 (centres unmarked) [Compound 39, 5-(2,6-difluorophenyl)-6-(3,5-dimethoxyphenyl)-4,5-dihydro-2-methyl-3(2H)-pyridazinone] | – | – | – | – | – | – | 69 | 86 | 0 | 98 | 99 | 0
135 to 138 | COc1ccc(Cl)c(-c2nn(C)c(=O)c(C)c2-c2c(F)cccc2F)c1 [Compound 68, 6-(2-chloro-5-methoxyphenyl)-5-(2,6-difluorophenyl)-2,4-dimethyl-3(2H)-pyridazinone] | 100 | 100 | 100 | 100 | 99 | 100 | – | – | – | – | – | –
223 to 227 | COc1cc(OC)c([N+](=O)[O-])c(-c2nn(C)c(=O)c(Cl)c2-c2c(F)cccc2F)c1 [Compound 37, 4-chloro-5-(2,6-difluorophenyl)-6-(3,5-dimethoxy-2-nitrophenyl)-2-methyl-3(2H)-pyridazinone] | – | – | – | – | – | – | 98 | 100 | 100 | 99 | 99 | 99
134 to 137 | COc1ccc(Cl)c(-c2nn(C)c(=O)c(Cl)c2-c2c(F)cccc2F)c1 [Compound 57, 4-chloro-6-(2-chloro-5-methoxyphenyl)-5-(2,6-difluorophenyl)-2-methyl-3(2H)-pyridazinone] | 99 | 100 | 99 | 100 | 99 | 100 | – | – | – | – | – | –
149 to 150 | COc1ccc(Cl)c(-c2nn(C)c(=O)c(C)c2-c2ccc(F)cc2Cl)c1 [Compound 102, 5-(2-chloro-4-fluorophenyl)-6-(2-chloro-5-methoxyphenyl)-2,4-dimethyl-3(2H)-pyridazinone] | 100 | 100 | 100 | 100 | 98 | 100 | – | – | – | – | – | –

More lines, now with the values behind:

SMILES | melting point [°C] | pest or weed control at 50 ppm [1] [%] | pest or weed control at 50 ppm [2] [%] | pest or weed control at 50 ppm [3] [%] | pest or weed control at 50 ppm [4] [%] | pest or weed control at 50 ppm [5] [%] | pest or weed control at 50 ppm [6] [%] | pest or weed control at 250 ppm [1] [%] | pest or weed control at 250 ppm [2] [%] | pest or weed control at 250 ppm [3] [%] | pest or weed control at 250 ppm [4] [%] | pest or weed control at 250 ppm [5] [%] | pest or weed control at 250 ppm [6] [%]
CCN1N=C(c2cc(OC)cc(OC)c2)C(c2c(F)cccc2F)CC1=O (centres unmarked) [Compound 33, 5-(2,6-difluorophenyl)-6-(3,5-dimethoxyphenyl)-4,5-dihydro-2-ethyl-3(2H)-pyridazinone] | 119 to 122 | – | – | – | – | – | – | 0 | 55 | 0 | 0 | 0 | 0
COc1cc(-c2nn(C)c(=O)cc2-c2c(F)cccc2F)cc(OC)c1Cl [Compound 14, 6-(4-chloro-3,5-dimethoxyphenyl)-5-(2,6-difluorophenyl)-2-methyl-3(2H)-pyridazinone] | 221 to 225 | – | – | – | – | – | – | 0 | 80 | 0 | 88 | 0 | 0
COc1cc(OC)c([N+](=O)[O-])c(-c2nn(C)c(=O)cc2-c2c(F)cccc2F)c1 [Compound 13, 5-(2,6-difluorophenyl)-6-(3,5-dimethoxy-2-nitrophenyl)-2-methyl-3(2H)-pyridazinone] | 174 to 178 | – | – | – | – | – | – | 81 | 99 | 63 | 94 | 99 | 9
COc1cc(OC)c(Cl)c(-c2nn(C)c(=O)cc2-c2ccc(F)cc2Cl)c1 [Compound 25, 6-(2-chloro-3,5-dimethoxyphenyl)-5-(2-chloro-4-fluorophenyl)-2-methyl-3(2H)-pyridazinone] | 121 to 125 | 98 | 100 | 94 | 100 | 100 | 85 | – | – | – | – | – | –
COc1cc(OC)cc(-c2nn(C)c(=O)c(Cl)c2-c2c(F)cccc2F)c1 [Compound 36, 4-chloro-5-(2,6-difluorophenyl)-6-(3,5-dimethoxyphenyl)-2-methyl-3(2H)-pyridazinone] | 150 to 154 | – | – | – | – | – | – | 99 | 100 | 93 | 100 | 100 | 99
COc1cc(OC)c(Cl)c(-c2nn(C)c(=O)cc2-c2c(F)cccc2F)c1 [Compound 12, 6-(2-chloro-3,5-dimethoxyphenyl)-5-(2,6-difluorophenyl)-2-methyl-3(2H)-pyridazinone] | 172 to 176 | – | – | – | – | – | – | 100 | 100 | 100 | 100 | 99 | 0
Cn1nc(-c2ccc(F)cc2Cl)c(-c2ccc(F)cc2Cl)c(C#N)c1=O [Compound 6, 5,6-bis(2-chloro-4-fluorophenyl)-2,3-dihydro-2-methyl-3-oxo-4-pyridazine-carbonitrile] | 137 to 140 | – | – | – | – | – | – | 92 | 100 | 0 | 100 | 99 | 99
COc1cc(OC)cc(-c2nn(C)c(=O)c(Br)c2-c2c(F)cccc2F)c1 [Compound 34, 4-bromo-5-(2,6-difluorophenyl)-6-(3,5-dimethoxyphenyl)-2-methyl-3(2H)-pyridazinone] | 153 to 157 | – | – | – | – | – | – | 95 | 89 | 99 | 100 | 99 | 99
